# Measured values as given in patent US9932325B2 (Denali Therapeutics Inc., priority 2015, dated 2018).
# Target: LRRK2 G2019S enzyme (Homo sapiens (Human), UniProt Q5S007, G2019S)
# Test: LRRK2 G2019S TR-FRET biochemical assay (LRRKtide substrate)
# Settings: 134 μM ATP
# Description: Detection Reaction Conditions • 1× TR-FRET dilution buffer • 10 mM EDTA • 2 nM antibody • 23° C. reaction temperature • 10 μL total reaction volume
# Compounds were prepared by initially diluting to 1 mM with DMSO. 35 μL of reference compound solution, 35 μL of test compound solution, and 35 μL HPE were successively added to the source plate (384-well assay plate, Labcyte). The plates were centrifuged at 2500 rpm for 1 minute and sealed in foil. […] The assay plate was centrifuged at 2500 rpm for 1 minute, and sealed with foil.
# To perform the enzyme reaction, 5 μL of LRRKtide substrate and kinase mixture in assay buffer was added to all wells of the assay plate. The plate was centrifuged to concentrate the mixture at the bottom of the wells. The assay plate was incubated at 23° C. for 20 minutes. Following incubation, 5 μL of 2× ATP in assay buffer was added to each well, and plates were centrifuged to concentrate the mixture at the bottom of the wells. The plate was incubated at 23° C. for 60 minutes.
# To perform the detection of the reaction, EDTA completely mixed in TR-FRET dilution buffer was added to antibody reagent. 10 μL of detection reagent was added to all wells of each well of the assay plate and the plate was centrifuged to concentrate the mixture at the bottom of the wells. The plate was then incubated at 23° C. for 60 minutes.
# Sequence of LRRK2 G2019S enzyme (Q5S007 whole entry G2019S): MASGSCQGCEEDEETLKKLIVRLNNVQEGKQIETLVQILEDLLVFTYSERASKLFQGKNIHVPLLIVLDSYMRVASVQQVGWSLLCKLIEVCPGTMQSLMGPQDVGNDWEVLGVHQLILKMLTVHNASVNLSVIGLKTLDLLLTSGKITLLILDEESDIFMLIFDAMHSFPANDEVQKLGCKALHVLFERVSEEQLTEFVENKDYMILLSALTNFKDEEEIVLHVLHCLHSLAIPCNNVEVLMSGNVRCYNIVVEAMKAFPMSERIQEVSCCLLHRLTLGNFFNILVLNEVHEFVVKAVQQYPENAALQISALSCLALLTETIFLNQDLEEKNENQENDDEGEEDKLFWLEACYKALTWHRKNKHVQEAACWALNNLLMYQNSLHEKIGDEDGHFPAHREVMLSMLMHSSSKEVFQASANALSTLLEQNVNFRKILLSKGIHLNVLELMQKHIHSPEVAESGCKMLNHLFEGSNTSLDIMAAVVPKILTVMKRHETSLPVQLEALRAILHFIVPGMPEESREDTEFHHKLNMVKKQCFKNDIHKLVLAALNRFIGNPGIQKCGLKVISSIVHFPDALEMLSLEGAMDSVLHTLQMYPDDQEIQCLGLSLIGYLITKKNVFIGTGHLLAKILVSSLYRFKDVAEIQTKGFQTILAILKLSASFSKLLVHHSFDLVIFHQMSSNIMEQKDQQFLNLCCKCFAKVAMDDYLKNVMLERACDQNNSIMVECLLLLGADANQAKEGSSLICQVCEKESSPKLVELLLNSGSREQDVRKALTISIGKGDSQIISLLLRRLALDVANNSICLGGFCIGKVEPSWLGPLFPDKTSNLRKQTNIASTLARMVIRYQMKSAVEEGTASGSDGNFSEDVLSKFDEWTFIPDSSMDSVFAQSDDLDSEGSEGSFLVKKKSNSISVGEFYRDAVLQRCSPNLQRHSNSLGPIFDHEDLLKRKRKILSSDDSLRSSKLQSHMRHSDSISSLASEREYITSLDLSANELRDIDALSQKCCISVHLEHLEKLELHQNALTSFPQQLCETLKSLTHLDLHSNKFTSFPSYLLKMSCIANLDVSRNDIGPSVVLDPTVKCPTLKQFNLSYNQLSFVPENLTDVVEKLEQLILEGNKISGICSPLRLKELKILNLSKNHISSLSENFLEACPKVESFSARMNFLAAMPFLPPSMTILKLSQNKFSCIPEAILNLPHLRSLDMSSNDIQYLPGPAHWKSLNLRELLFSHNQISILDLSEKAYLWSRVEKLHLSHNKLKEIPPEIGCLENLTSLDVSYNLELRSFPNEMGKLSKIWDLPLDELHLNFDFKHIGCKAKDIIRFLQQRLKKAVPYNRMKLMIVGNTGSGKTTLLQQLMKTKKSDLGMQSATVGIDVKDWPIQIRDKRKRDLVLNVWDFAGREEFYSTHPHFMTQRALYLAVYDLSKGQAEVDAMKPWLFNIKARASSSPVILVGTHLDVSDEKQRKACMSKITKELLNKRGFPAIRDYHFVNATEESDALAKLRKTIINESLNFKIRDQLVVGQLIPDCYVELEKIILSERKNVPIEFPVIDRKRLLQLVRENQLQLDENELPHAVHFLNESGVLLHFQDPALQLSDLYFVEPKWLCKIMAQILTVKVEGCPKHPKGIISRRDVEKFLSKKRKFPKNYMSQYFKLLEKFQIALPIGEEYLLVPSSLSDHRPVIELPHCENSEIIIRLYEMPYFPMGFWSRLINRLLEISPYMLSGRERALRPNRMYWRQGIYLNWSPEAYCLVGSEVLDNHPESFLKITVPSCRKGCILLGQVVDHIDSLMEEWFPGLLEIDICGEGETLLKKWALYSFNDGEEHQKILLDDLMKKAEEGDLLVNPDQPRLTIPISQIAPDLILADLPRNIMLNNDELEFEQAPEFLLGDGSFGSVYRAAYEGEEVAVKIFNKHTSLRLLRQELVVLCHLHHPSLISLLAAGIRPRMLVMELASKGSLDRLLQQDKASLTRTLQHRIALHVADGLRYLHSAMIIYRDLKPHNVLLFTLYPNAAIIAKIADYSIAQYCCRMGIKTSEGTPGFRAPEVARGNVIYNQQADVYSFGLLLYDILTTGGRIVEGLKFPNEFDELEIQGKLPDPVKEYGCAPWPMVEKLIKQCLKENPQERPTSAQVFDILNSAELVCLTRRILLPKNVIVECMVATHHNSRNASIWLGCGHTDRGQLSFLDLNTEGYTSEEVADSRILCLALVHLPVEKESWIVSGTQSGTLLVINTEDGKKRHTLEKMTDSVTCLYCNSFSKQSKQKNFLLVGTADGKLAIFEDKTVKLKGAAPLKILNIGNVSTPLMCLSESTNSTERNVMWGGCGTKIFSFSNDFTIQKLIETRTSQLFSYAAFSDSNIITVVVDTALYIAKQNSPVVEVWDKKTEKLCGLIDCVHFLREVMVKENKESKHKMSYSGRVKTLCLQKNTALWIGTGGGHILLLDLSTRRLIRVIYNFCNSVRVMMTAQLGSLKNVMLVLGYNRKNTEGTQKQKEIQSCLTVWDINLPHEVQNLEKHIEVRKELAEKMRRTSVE
row,SMILES,IC50
1,CCNc1nc(Nc2cc(C3(C)CCn4ccnc43)nn2C2CC2)ncc1C(F)(F)F (stereo not drawn) [Compound 167],< 30 nM
2,Cc1nn(C(C)(C)C#N)cc1Nc1ncc(C(F)(F)F)c(N[C@H]2C[C@H]2F)n1 [Compound 39A],< 30 nM
3,CCNc1nc(Nc2cc(C(C)(C)O)nn2C2CC2)ncc1C(F)(F)F [Compound 134],< 30 nM
4,[2H]C([2H])([2H])c1nn(C(C#N)(C([2H])([2H])[2H])C([2H])([2H])[2H])cc1Nc1ncc(C(F)(F)F)c(NC)n1 [Compound 45],< 30 nM
5,"CCNc1nc(Nc2cnn(-c3cnccn3)c2C2CC2)ncc1C(F)(F)F [Compound 105, N2-(5-cyclopropyl-1-pyrazin-2-yl-pyrazol-4-yl)-N4-ethyl-5-(trifluoromethyl)pyrimidine-2,4-diamine]",< 30 nM
6,"CCNc1nc(Nc2ccnn2[C@H]2C[C@H](C#N)C2)ncc1C(F)(F)F [Compound 181, (1R,3R)-3-(5-((4-(ethylamino)-5-(trifluoromethyl)pyrimidin-2-yl)amino)-1H-pyrazol-1-yl)cyclobutanecarbonitrile]",< 30 nM
7,"CCNc1nc(Nc2cn(C3CS(=O)(=O)C3)nc2C2CC2)ncc1C(F)(F)F [Compound 110, N2-[3-cyclopropyl-1-(1,1-dioxothietan-3-yl)pyrazol-4-yl]-N4-ethyl-5-(trifluoromethyl)pyrimidine-2,4-diamine]",< 30 nM
8,CNc1nc(Nc2cnn(C3CC4CCC(C3)N4C)c2C)ncc1C(F)(F)F (stereo not drawn) [Compound 1],< 30 nM
9,CNc1nc(Nc2cnn3c2CC2(COC2)C3)ncc1C(F)(F)F [Compound 16],< 30 nM
10,CNc1nc(Nc2cn(CC34CC(C#N)(C3)C4)nc2C)ncc1C(F)(F)F [Compound 6],> 60 nM
11,CNc1nc(Nc2cc(C3(C)CCn4ccnc43)nn2C2CC2)ncc1C(F)(F)F (stereo not drawn) [Compound 178],< 30 nM
12,CCNc1nc(Nc2cc(C3(C)CCn4ccnc43)nn2C2CC2)ncc1C(F)(F)F (stereo not drawn) [Compound 166],> 60 nM
13,CCNc1nc(Nc2cc(N3CCCC3=O)nn2C2CC2)ncc1Br [Compound 158],< 30 nM
14,CCNc1nc(Nc2cc(C(C)(C)O)nn2C2CCC2)ncc1C(F)(F)F [Compound 191],< 30 nM
15,CCNc1nc(Nc2cc(C#N)nn2C2CC2)ncc1C(F)(F)F [Compound 133],> 60 nM
16,CCNc1nc(Nc2cc(C3(C)COC3)nn2C2CC2)ncc1Br [Compound 148],< 30 nM
17,CCNc1nc(Nc2cnn(C3CCC3)c2C#N)ncc1Br [Compound 58],< 30 nM
18,CCNc1nc(Nc2cc(S(C)(=O)=O)nn2C2CC2)ncc1C(F)(F)F [Compound 132],< 30 nM

row,SMILES,IC50
1,CCNc1nc(Nc2ccnn2[C@H]2C[C@H](F)C2)ncc1C(F)(F)F [Compound 190],< 30 nM
2,CCNc1nc(Nc2cn(C3CC3)nc2[C@H]2C[C@H](n3nccn3)C2)ncc1C(F)(F)F [Compound 196],< 30 nM
3,CCNc1nc(Nc2cnn(C3CCC3)c2C#N)ncc1C(F)(F)F [Compound 32],< 30 nM
4,"CCNc1nc(Nc2ccnn2[C@H]2C[C@H](n3ccnn3)C2)ncc1C(F)(F)F [Compound 183, N2-(1-((1R,3R)-3-(1H-1,2,3-triazol-1-yl)cyclobutyl)-1H-pyrazol-5-yl)-N4-ethyl-5-(trifluoromethyl)pyrimidine-2,4-diamine]",< 30 nM
5,[2H]C([2H])([2H])n1nc(C2(C)CCCO2)cc1Nc1ncc(C(F)(F)F)c(NCC)n1 (stereo not drawn) [Compound 186],< 30 nM
6,CNc1nc(Nc2cc([C@@]34C[C@@H]3COC4=O)nn2C2CC2)ncc1C(F)(F)F [Compound 163],< 30 nM
7,"CCNc1nc(Nc2cc(N3CCCC3=O)nn2C2CC2)ncc1C(F)(F)F [Compound 153, 1-(1-cyclopropyl-5-((4-(ethylamino)-5-(trifluoromethyl)pyrimidin-2-yl)amino)-1H-pyrazol-3-yl)pyrrolidin-2-one]",< 30 nM
8,CCNc1nc(Nc2cnn(-c3cnccn3)c2Cl)ncc1C(F)(F)F [Compound 98],< 30 nM
9,CNc1nc(Nc2cc([C@]34C[C@H]3COC4=O)nn2C2CC2)ncc1C(F)(F)F [Compound 168],< 30 nM
10,CCNc1nc(Nc2cc(C3(C)CCC(=O)N3)nn2C2CC2)ncc1C(F)(F)F (stereo not drawn) [Compound 136],30 to 60 nM
11,CNc1nc(Nc2cnn(C3C[C@@H]4C[C@@H]4C3)c2C)ncc1C(F)(F)F (stereo partly drawn) [Compound 4],< 30 nM
12,COc1nc(Nc2cnn(C3(C)CCNC3=O)c2C)ncc1Br (stereo not drawn) [Compound 65],< 30 nM
13,CNc1nc(Nc2cc(C(C)(C)n3nccn3)nn2C2CC2)ncc1C(F)(F)F [Compound 77],< 30 nM
14,CCNc1nc(Nc2ccnn2[C@H]2C[C@H](O)C2)ncc1C(F)(F)F [Compound 180],30 to 60 nM
15,CCNc1nc(Nc2cc([C@]34C[C@H]3COC4=O)nn2C2CC2)ncc1C(F)(F)F [Compound 165],< 30 nM
16,CCNc1nc(Nc2cc(C(C)=O)nn2C2CC2)ncc1C(F)(F)F [Compound 135],> 60 nM
17,CCNc1nc(Nc2cc(C3(C)CCn4ncnc43)nn2C2CC2)ncc1C(F)(F)F (stereo not drawn) [Compound 171],> 60 nM

# More lines, now with the values ahead:
row,IC50,SMILES
1,< 30 nM,"N#C[C@@H]1CC1n1cc(Nc2ncc(C(F)(F)F)c(NCC(F)F)n2)c(C2CC2)n1 (single isomer, unassigned) [Compound 210]"
2,< 30 nM,"CCNc1nc(Nc2cn(C3(C)CCOC3=O)nc2Cl)ncc1C(F)(F)F (single isomer, unassigned) [Compound 117]"
3,< 30 nM,"CNc1nc(Nc2cn(C3(C)CCOC3=O)nc2C2CC2)ncc1C(F)(F)F (single isomer, unassigned) [Compound 113]"
4,< 30 nM,"CCNc1nc(Nc2cn(C3C[C@H]3C#N)nc2Cl)ncc1C(F)(F)F (single isomer, unassigned) [Compound 207]"
5,< 30 nM,[2H]C([2H])([2H])n1nc(C(C)(C)n2nccn2)cc1Nc1ncc(Br)c(NCC)n1 [Compound 75]
6,< 30 nM,[2H]C([2H])([2H])N1CCC(n2cc(Nc3ncc(C(F)(F)F)c(NCC)n3)c(C)n2)(C([2H])([2H])[2H])C1=O (stereo not drawn) [Compound 22]
7,< 30 nM,CCNc1nc(Nc2cnn3c2CC(F)C3)ncc1C(F)(F)F (stereo not drawn) [Compound 50]
8,< 30 nM,[2H]C([2H])([2H])n1nc(C2(C)CCOC2=O)cc1Nc1ncc(C(F)(F)F)c(NCC)n1 (stereo not drawn) [Compound 174]
9,< 30 nM,Cc1nn(C(C)(C)C#N)cc1Nc1ncc(C(F)(F)F)c(NC2CC2)n1 [Compound 38]
10,< 30 nM,CCNc1nc(Nc2cn(C(C)(C)C#N)nc2C)ncc1C(F)(F)F [Compound 87]
11,< 30 nM,[2H]C([2H])([2H])n1nc(Nc2ncc(C(F)(F)F)c(NCC)n2)cc1C(C)(C)c1ncco1 [Compound 83]
12,< 30 nM,"CCNc1nc(Nc2cn(C3(C)CCOC3=O)nc2C)ncc1C(F)(F)F (single isomer, unassigned) [Compound 100]"
13,< 30 nM,[2H]C([2H])([2H])c1nn(C(C#N)(C([2H])([2H])[2H])C([2H])([2H])[2H])cc1Nc1ncc(C(F)(F)F)c(NC([2H])([2H])C([2H])([2H])[2H])n1 [Compound 74]
14,< 30 nM,CCNc1nc(Nc2cnn([C@H]3C[C@@H](n4nccn4)C3)c2C2CC2)ncc1C(F)(F)F [Compound 101]
15,< 30 nM,[2H]C([2H])([2H])n1nc(C(C)(C)c2ncco2)cc1Nc1ncc(C(F)(F)F)c(NCC)n1 [Compound 82]
16,< 30 nM,[2H]C([2H])([2H])N1CCC(n2cc(Nc3ncc(C(F)(F)F)c(NCC)n3)c(C)n2)C1=O (stereo not drawn) [Compound 25]
17,< 30 nM,"CNc1nc(Nc2cnn(C3CN(C4COC4)CCC3(F)F)c2Cl)ncc1C(F)(F)F (single isomer, unassigned) [Compound 28]"
18,< 30 nM,CCNc1nc(Nc2cnn([C@H]3C[C@@H](N4CCN(CC(F)F)CC4)C3)c2C)ncc1C(F)(F)F [Compound 106]
19,< 30 nM,"COc1nc(Nc2cn(C3C[C@H]3C#N)nc2C2CC2)ncc1Br (single isomer, unassigned) [Compound 213]"
20,< 30 nM,CCNc1nc(Nc2cnn([C@H]3C[C@H](n4nccn4)C3)c2C2CC2)ncc1C(F)(F)F [Compound 97]
21,< 30 nM,[2H]C([2H])([2H])c1nn(C(C#N)(C([2H])([2H])[2H])C([2H])([2H])[2H])cc1Nc1ncc(C(F)(F)F)c(NC2CC2)n1 [Compound 48]
22,< 30 nM,"CCNc1nc(Nc2cnn3c2CC(C#N)C3)ncc1C(F)(F)F (single isomer, unassigned) [Compound 52A]"
23,< 30 nM,[2H]C([2H])([2H])n1nc(C2(C)CCOC2=O)cc1Nc1ncc(C(F)(F)F)c(NC)n1 (stereo not drawn) [Compound 176]
24,< 30 nM,"CCNc1nc(Nc2cnn3c2CC(C#N)C3)ncc1C(F)(F)F (single isomer, unassigned) [Compound 52B]"
25,< 30 nM,"[2H]C([2H])([2H])N1CCC(n2cc(Nc3ncc(C(F)(F)F)c(NCC)n3)c(C)n2)(C([2H])([2H])[2H])C1=O (single isomer, unassigned) [Compound 23]"
26,< 30 nM,"CCNc1nc(Nc2cnn(C3CN(CC)CCC3(F)F)c2Cl)ncc1C(F)(F)F (single isomer, unassigned) [Compound 204]"
27,< 30 nM,"CNc1nc(Nc2cn(C3(C)CCOC3=O)nc2C)ncc1C(F)(F)F (single isomer, unassigned) [Compound 119]"
28,< 30 nM,"CCNc1nc(Nc2cnn(C3CNCCC3(F)F)c2C)ncc1C(F)(F)F (single isomer, unassigned) [Compound 201]"
